According to US5583101A, “Use of nitrogen oxide species and adducts to inhibit skeletal muscle contraction” (Harvard College, priority 1994, dated 1996):

Experiments:
[1] = test system: rat diaphragm fiber bundles; test: Force-frequency relationship (isometric force) of isolated diaphragm fiber bundles; assay type: cell-based; conditions: for contractile increases (force-frequency relationship): same dose range as NIZ (100 uM-1 mM)
Protocol: FIGS. 3A and 3B. Skeletal muscle contractile properties are related to NOS activity Muscles (Soleus, n=6; DPH, diaphragm fiber bundles, n=7; EDL, extensor digitorum longus, n=5) were surgically isolated from deeply anesthetized rats, mounted in vitro at optimal length, and incubated at 37° C. in oxygenated buffered Krebs-Ringer solution containing d-tubocurarine 25 uM. Direct field stimulation (0.2 ms pulses, 250 ms train duration, supramaximal voltage) was used to evoke twitch (1 Hz) and tetanic (15, 30, 40, 50, 80, 120, 200 Hz) contractions. Isometric force was measured. Upper panel (A) depicts the average forces (+/-SE) developed at frequencies of 1-200 Hz. Tetanic stimulation at any submaximal frequency (15-150 Hz) evoked different amounts of force production among the muscles (Soleus>DPH>EDL). A vertical dotted line identifies the frequency (40 Hz) used in comparisons of NOS activity.
(§1) FIGS. 4A and 4B. Endogenous NO depresses contractile function. Fiber bundles were isolated from rat diaphragm and studied using methods described in FIG. 3. Panel A depicts the average forces (+SE) developed at stimulus frequencies of 1-120 Hz by muscles incubated in Krebs-Ringer solution containing either 7-nitroindazole (NIZ; n=3 per frequency) or aminoguanidine (AMG, n=3 per frequency). Forces are expressed as percentages of maximal tetanic force (PO).

[2] = test system: rat diaphragm fiber bundles; test: Force developed at 40 Hz (submaximal tetanic contraction) by diaphragm fiber bundles; assay type: cell-based
Protocol: FIGS. 3A and 3B. […] Direct field stimulation (0.2 ms pulses, 250 ms train duration, supramaximal voltage) was used to evoke twitch (1 Hz) and tetanic (15, 30, 40, 50, 80, 120, 200 Hz) contractions. Isometric force was measured. Upper panel (A) depicts the average forces (+/-SE) developed at frequencies of 1-200 Hz. […] A vertical dotted line identifies the frequency (40 Hz) used in comparisons of NOS activity.
as §1, with “Endogenous NO depresses contractile function.” left out
Fiber bundles were isolated from rat diaphragm and studied using methods described in the description of FIG. 3. Data are mean forces (±SE) developed at 40 Hz by fiber bundles (n=5 or 6/group) treated with NLA (transcribed from FIG. 4B), NLA plus dipyramidole (DPM; phosphodiesterase inhibitor) 10 uM, 8-bromo-cGMP (BGMP; exogenous CGMP analogue), or DPM plus BGMP. Forces are expressed as percentages of the average force developed at 40 Hz by time- and stimulus-matched control muscle (shown±SE by horizontal dashed lines).

b-NOS = conditions: Moore et al.; cited from earlier work
other NOS isoforms = conditions: Misko et al. 1993; cited from earlier work

## N=C(N)NCCC[C@H](N)C(=O)O [L-arginine]
[1]
  contractile increases (force-frequency relationship): not

## Nc1nc2c(nc(Br)n2[C@@H]2O[C@@H]3COP(=O)(O)O[C@H]3[C@H]2O)c(=O)[nH]1 [BGMP, 8-bromo-cGMP]
[2]; 40 Hz, FIG. 5
  effect on contractile increases caused by NOS inhibition: reversed
[2]; NLA-treated bundles, DPM 10 uM, FIG. 5, p<0.0001
  force developed at 40 Hz, compared with control: greater than control

## Hemoglobin
[2]; 40 Hz, 50 uM, n=5, p=0.052
  force production during submaximal tetanic contraction: enhances force production
[2]; 40 Hz, 50-250 uM, n=10, p<0.001
  force production during submaximal tetanic contraction: enhances force production

## CC(=O)N[C@@H](CSN=O)C(=O)O [SNAC, S-nitroso-N-acetylcysteine]
[2]; 100 uM, FIG. 4B
  contractile function with exogenous NO donor: depressing contractile function
[2]; 40 Hz, SNAC 100 uM, NP 100 uM, NLA 10 mM, FIG. 4B
  force developed at 40 Hz, compared with control: not different from control

## O=[N+]([O-])c1cccc2cn[nH]c12 [NIZ, 7-nitroindazole]
b-NOS
  NOS isoform specificity: b-NOS specific inhibitor
[1]; 100 uM, p<0.05
  effect on contractile function (force-frequency relationship): Significant effects
[1]; 1 mM, FIG. 4A
  effect on contractile function (force-frequency curve): profoundly influenced contractile function, causing the diaphragm force-frequency curve to closely approximate that of the soleus
[1]; 1 mM, FIG. 4A, repeated measures ANOVA
  shift of the diaphragm force-frequency relationship: shifted the diaphragm force-frequency relationship up and to the left (p<0.0001 by repeated measures ANOVA) such that it was indistinguishable from the relationship measured in untreated soleus

## CN(C)c1ccc2nc3ccc(=[N+](C)C)cc-3sc2c1 [methylene blue]
[2]; 10 uM, p<0.001, data not shown
  force production during submaximal tetanic contraction: increased force production

## OCCN(CCO)c1nc(N2CCCCC2)c2nc(N(CCO)CCO)nc(N3CCCCC3)c2n1 [DPM, dipyridamole]
[2]; 40 Hz, FIG. 5
  effect on contractile increases caused by NOS inhibition: reversed

## N=C(N)NN [AMG, aminoguanidine]
[1]
  contractile increases (force-frequency relationship): Similar, albeit smaller, contractile increases
Other NOS isoforms
  NOS isoform selectivity: relative selectivity towards other NOS isoforms
